Results from patent US20240325544A1, “CATIONIC LIPID FOR COVALENT MODIFICATION OF PEPTIDES” (PharmalN Corporation, priority 2023, published 2024).
Where two headings read alike, the source gives them in different places. Marks after values point to notes of the source that are not given here. Bridge positions count the residues as written; N and C are the ends. Square brackets hold non-standard residues; d marks the D form. Peptide text beside a SMILES is read from it. * marks the point of attachment. C18 diacid = O=C(O)CCCCCCCCCCCCCCCCC(=O)*; Palmitoyl = CCCCCCCCCCCCCCCC(=O)*; Dab = NCC[C@H](N)C(=O)O; Dap = NC[C@H](N)C(=O)O; AEEA = NCCOCCOCC(=O)O; GABA = NCCCC(=O)O

Columns and labels:
cGMP = assay: Plasma cGMP after SC bolus of natriuretic peptides in CD-1 mice (pharmacodynamics, Table 3); assay type: in vivo; details: SC bolus 1.0 mg/kg (≤0.45 μmol/kg), baseline 10 +/−8 pmol/ml, n = 3-5
Method: (§1) The test articles were formulated or dissolved in sterile water for injection on the same day of administration. […] Blood samples were collected via retro-orbital bleed at 2- and 6-hours post-injection, with two bleedings per animal at two different timepoints. The samples were collected in K2EDTA tubes, processed by centrifugation (2000×g; 15 m 4 eC within 30 minutes after collection), and the resulting plasma samples were stored at −80° C. Biochemical analysis: The plasma concentration of the respective natriuretic peptide was analyzed using commercially available ELISA kits from Phoenix Pharmaceuticals (Burlingame, CA): ANP ELISA (cat #EKE-005-06), BNP ELISA (cat #EKE-011-03), and CNP ELISA (cat #EKE-012-03). […] Plasma cGMP was analyzed using a commercially available kit from Abcam (ab133052, Waltham, MA).

[1] = Plasma concentration of respective natriuretic peptide by ELISA after SC bolus in CD-1 mice (pharmacokinetics, Table 3); details: male, CD-1, mouse, in vivo
Method: as §1

Structure (SMILES) | Plasma concentration of cGMP, 2 hr (cGMP) | Plasma concentration of cGMP, 6 hr (cGMP) | level at 2 h ([1]; sc, 1 mg/kg) | level at 6 h ([1]; sc, 1 mg/kg) | level at 2 h ([1]; mice, SC bolus 1.0 mg/kg (≤0.45 μmol/kg), 2 hr, ELISA, n = 3-5, read-out: Plasma concentration of respective Natriuretic Peptide, ANP, BNP, or CNP, 2 hr) | level at 6 h ([1]; mice, SC bolus 1.0 mg/kg (≤0.45 μmol/kg), 6 hr, ELISA, n = 3-5, read-out: Plasma concentration of respective Natriuretic Peptide, ANP, BNP, or CNP, 6 hr)
CCCCCCCCCCCCCCCC(=O)NCCOCCOCC(=O)NCCOCCOCC(=O)N[C@@H](CN)C(=O)N[C@@H](CCN)C(=O)NCC(=O)N[C@@H](CC(C)C)C(=O)N[C@@H](CO)C(=O)N[C@@H](CCCCN)C(=O)NCC(=O)N[C@H]1CSSC[C@@H](C(=O)O)NC(=O)CNC(=O)[C@H](CC(C)C)NC(=O)CNC(=O)[C@H](CO)NC(=O)[C@H](CCC(N)=O)NC(=O)[C@H](CO)NC(=O)CNC(=O)[C@H]([C@@H](C)CC)NC(=O)[C@H](CCCNC(=N)N)NC(=O)[C@H](CC(=O)O)NC(=O)[C@H](CC(C)C)NC(=O)[C@H](CCCCN)NC(=O)[C@H](CC(C)C)NC(=O)CNC(=O)[C@H](Cc2ccccc2)NC1=O [SEQ ID NO: 35] ({Palmitoyl-AEEA-AEEA}-[Dap][Dab]GLSKGCFGLKLDRIGSQSGLGC-OH; disulfide 8-24; C-terminus assumed) | 65.28**** pmol/mL | 35.10** pmol/mL | 12.9 ng/mL | 4.13 ng/mL |  | 
CC[C@H](C)[C@@H]1NC(=O)[C@H](CCCNC(=N)N)NC(=O)[C@H](CC(=O)O)NC(=O)[C@H](CC(C)C)NC(=O)[C@H](CCCCN)NC(=O)[C@H](CC(C)C)NC(=O)CNC(=O)[C@H](Cc2ccccc2)NC(=O)[C@@H](NC(=O)CNC(=O)[C@H](CCCCN)NC(=O)[C@H](CO)NC(=O)[C@H](CC(C)C)NC(=O)CNC(=O)[C@H](CCN)NC(=O)[C@H](CCN)NC(=O)COCCOCCNC(=O)COCCOCCNC(=O)COCCOCCNC(=O)CCCCCCCCCCCCCCCCC(=O)O)CSSC[C@@H](C(=O)O)NC(=O)CNC(=O)[C@H](CC(C)C)NC(=O)CNC(=O)[C@H](CO)NC(=O)[C@H](CCC(N)=O)NC(=O)[C@H](CO)NC(=O)CNC1=O [SEQ ID NO: 33] ({C18 diacid-AEEA-AEEA-AEEA}-[Dab][Dab]GLSKGCFGLKLDRIGSQSGLGC-OH; disulfide 8-24; C-terminus assumed) | 25.91** pmol/mL | 31.61* pmol/mL | 75.9 ng/mL | 68.2 ng/mL |  | 
CC[C@H](C)[C@@H]1NC(=O)[C@H](CCCNC(=N)N)NC(=O)[C@H](CC(=O)O)NC(=O)[C@H](CC(C)C)NC(=O)[C@H](CCCCN)NC(=O)[C@H](CC(C)C)NC(=O)CNC(=O)[C@H](Cc2ccccc2)NC(=O)[C@@H](NC(=O)CNC(=O)[C@H](CCCCN)NC(=O)[C@H](CO)NC(=O)[C@H](CC(C)C)NC(=O)CNC(=O)[C@H](CN)NC(=O)[C@H](CN)NC(=O)COCCOCCNC(=O)COCCOCCNC(=O)COCCOCCNC(=O)CCCCCCCCCCCCCCCCC(=O)O)CSSC[C@@H](C(=O)O)NC(=O)CNC(=O)[C@H](CC(C)C)NC(=O)CNC(=O)[C@H](CO)NC(=O)[C@H](CCC(N)=O)NC(=O)[C@H](CO)NC(=O)CNC1=O [SEQ ID NO: 39] ({C18 diacid-AEEA-AEEA-AEEA}-[Dap][Dap]GLSKGCFGLKLDRIGSQSGLGC-OH; disulfide 8-24; C-terminus assumed) | 13.29 pmol/mL | 43.60 pmol/mL | 50.7 ng/mL | 23.7 ng/mL |  | 
CCCCCCCCCCCCCCCC(=O)NCCCC(=O)NCCCC(=O)NCCCC(=O)N[C@@H](CCN)C(=O)N[C@@H](CCN)C(=O)NCC(=O)N[C@@H](CC(C)C)C(=O)N[C@@H](CO)C(=O)N[C@@H](CCCCN)C(=O)NCC(=O)N[C@H]1CSSC[C@@H](C(=O)O)NC(=O)CNC(=O)[C@H](CC(C)C)NC(=O)CNC(=O)[C@H](CO)NC(=O)[C@H](CCC(N)=O)NC(=O)[C@H](CO)NC(=O)CNC(=O)[C@H]([C@@H](C)CC)NC(=O)[C@H](CCCNC(=N)N)NC(=O)[C@H](CC(=O)O)NC(=O)[C@H](CC(C)C)NC(=O)[C@H](CCCCN)NC(=O)[C@H](CC(C)C)NC(=O)CNC(=O)[C@H](Cc2ccccc2)NC1=O [SEQ ID NO: 36] ({Palmitoyl-GABA-GABA-GABA}-[Dab][Dab]GLSKGCFGLKLDRIGSQSGLGC-OH; disulfide 8-24; C-terminus assumed) | 54.61*** pmol/mL | 41.75** pmol/mL | 7.57 ng/mL | 2.57 ng/mL |  | 
CC[C@H](C)[C@@H]1NC(=O)[C@H](CCCNC(=N)N)NC(=O)[C@H](CC(=O)O)NC(=O)[C@H](CC(C)C)NC(=O)[C@H](CCCCN)NC(=O)[C@H](CC(C)C)NC(=O)CNC(=O)[C@H](Cc2ccccc2)NC(=O)[C@@H](NC(=O)CNC(=O)[C@H](CCCCN)NC(=O)[C@H](CO)NC(=O)[C@H](CC(C)C)NC(=O)CNC(=O)[C@H](CCN)NC(=O)[C@H](CCN)NC(=O)COCCOCCNC(=O)COCCOCCNC(=O)CCCCCCCCCCCCCCCCC(=O)O)CSSC[C@@H](C(=O)O)NC(=O)CNC(=O)[C@H](CC(C)C)NC(=O)CNC(=O)[C@H](CO)NC(=O)[C@H](CCC(N)=O)NC(=O)[C@H](CO)NC(=O)CNC1=O [SEQ ID NO: 34] ({C18 diacid-AEEA-AEEA}-[Dab][Dab]GLSKGCFGLKLDRIGSQSGLGC-OH; disulfide 8-24; C-terminus assumed) | 15.78* pmol/mL | 33.6 pmol/mL | 75.5 ng/mL | 41 ng/mL |  | 
CCCCCCCCCCCCCCCC(=O)NCCCC(=O)NCCCC(=O)N[C@@H](CCN)C(=O)N[C@@H](CCN)C(=O)NCC(=O)N[C@@H](CC(C)C)C(=O)N[C@@H](CO)C(=O)N[C@@H](CCCCN)C(=O)NCC(=O)N[C@H]1CSSC[C@@H](C(=O)O)NC(=O)CNC(=O)[C@H](CC(C)C)NC(=O)CNC(=O)[C@H](CO)NC(=O)[C@H](CCC(N)=O)NC(=O)[C@H](CO)NC(=O)CNC(=O)[C@H]([C@@H](C)CC)NC(=O)[C@H](CCCNC(=N)N)NC(=O)[C@H](CC(=O)O)NC(=O)[C@H](CC(C)C)NC(=O)[C@H](CCCCN)NC(=O)[C@H](CC(C)C)NC(=O)CNC(=O)[C@H](Cc2ccccc2)NC1=O [SEQ ID NO: 37] ({Palmitoyl-GABA-GABA}-[Dab][Dab]GLSKGCFGLKLDRIGSQSGLGC-OH; disulfide 8-24; C-terminus assumed) | 39.77* pmol/mL | 22.71** pmol/mL | 11.9 ng/mL | 5.77 ng/mL |  | 
CCCCCCCCCCCCCCCC(=O)NCCOCCOCC(=O)NCCOCCOCC(=O)NCCOCCOCC(=O)N[C@@H](CN)C(=O)NCC(=O)N[C@@H](CC(C)C)C(=O)N[C@@H](CO)C(=O)N[C@@H](CCCCN)C(=O)NCC(=O)N[C@H]1CSSC[C@@H](C(=O)O)NC(=O)CNC(=O)[C@H](CC(C)C)NC(=O)CNC(=O)[C@H](CO)NC(=O)[C@H](CCC(N)=O)NC(=O)[C@H](CO)NC(=O)CNC(=O)[C@H]([C@@H](C)CC)NC(=O)[C@H](CCCNC(=N)N)NC(=O)[C@H](CC(=O)O)NC(=O)[C@H](CC(C)C)NC(=O)[C@H](CCCCN)NC(=O)[C@H](CC(C)C)NC(=O)CNC(=O)[C@H](Cc2ccccc2)NC1=O [SEQ ID NO: 42] ({Palmitoyl-AEEA-AEEA-AEEA}-[Dap]GLSKGCFGLKLDRIGSQSGLGC-OH; disulfide 7-23; C-terminus assumed) | 110.21*** pmol/mL | 46.90** pmol/mL | 26.1 ng/mL | 25 ng/mL |  | 
CCCCCCCCCCCCCCCC(=O)NCCOCCOCC(=O)NCCOCCOCC(=O)NCCOCCOCC(=O)N[C@@H](CCN)C(=O)NCC(=O)N[C@@H](CC(C)C)C(=O)N[C@@H](CO)C(=O)N[C@@H](CCCCN)C(=O)NCC(=O)N[C@H]1CSSC[C@@H](C(=O)O)NC(=O)CNC(=O)[C@H](CC(C)C)NC(=O)CNC(=O)[C@H](CO)NC(=O)[C@H](CCC(N)=O)NC(=O)[C@H](CO)NC(=O)CNC(=O)[C@H]([C@@H](C)CC)NC(=O)[C@H](CCCNC(=N)N)NC(=O)[C@H](CC(=O)O)NC(=O)[C@H](CC(C)C)NC(=O)[C@H](CCCCN)NC(=O)[C@H](CC(C)C)NC(=O)CNC(=O)[C@H](Cc2ccccc2)NC1=O [SEQ ID NO: 41] ({Palmitoyl-AEEA-AEEA-AEEA}-[Dab]GLSKGCFGLKLDRIGSQSGLGC-OH; disulfide 7-23; C-terminus assumed) | 124.77*** pmol/mL | 67.78**** pmol/mL | 26.7 ng/mL | 30.1 ng/mL |  | 
CC[C@H](C)[C@@H]1NC(=O)[C@H](CCCNC(=N)N)NC(=O)[C@H](CC(=O)O)NC(=O)[C@H](CCSC)NC(=O)[C@H](CCCCN)NC(=O)[C@H](CCCNC(=N)N)NC(=O)CNC(=O)[C@H](Cc2ccccc2)NC(=O)[C@@H](NC(=O)CNC(=O)[C@H](CO)NC(=O)CNC(=O)[C@H](CCC(N)=O)NC(=O)[C@@H](NC(=O)[C@H](CCSC)NC(=O)[C@H](CCCCN)NC(=O)[C@@H]2CCCN2C(=O)[C@@H](N)CO)C(C)C)CSSC[C@@H](C(=O)N[C@@H](CCCCN)C(=O)N[C@H](C(=O)N[C@@H](CC(C)C)C(=O)N[C@@H](CCCNC(=N)N)C(=O)N[C@@H](CCCNC(=N)N)C(=O)N[C@@H](Cc2c[nH]cn2)C(=O)O)C(C)C)NC(=O)CNC(=O)[C@H](CC(C)C)NC(=O)CNC(=O)[C@H](CO)NC(=O)[C@H](CO)NC(=O)[C@H](CO)NC(=O)[C@H](CO)NC1=O [SEQ ID NO: 48, reference compound] | 10.57 pmol/mL | 8.48 pmol/mL |  |  | 23.3 ng/mL | 30.6 ng/mL
